The target of one assay is FGFR2 (406-821) (Homo sapiens (Human), UniProt P21802). The assay is described as follows: In vitro biochemical assay for FGFR2.
The target of a further assay is FGFR1 (407-822) (Homo sapiens (Human), UniProt P11362). The assay can be described thus: In vitro biochemical assay for FGFR1.
The target of another assay is FGFR3 (411-806) (Homo sapiens (Human), UniProt P22607). The assay is described as follows: In vitro biochemical assay for FGFR3.
In assay [1] the test system is HuH-7 hepatocellular carcinoma cells. The assay can be described thus: CellTiter Glo (CTG) Assay. The conditions noted are these: Homo sapiens, Huh-7, 72 h, read-out: HUH7 proliferation (nM) CTG. In general terms: ATP-based viability assays read luminescence as a measure of living cells.
Assay [2] concerns the target FGFR4 (GST-FGFR4(388-802)) (Homo sapiens (Human), UniProt P22455). The assay is described as follows: In-vitro biochemical kinase assay for FGFR4 (Caliper microfluidic mobility shift). The following applies: read-out: Biochemical FGFR4 IC50.
The next assay deals with Tel-FGFR4 (Homo sapiens (Human), UniProt P22455). The assay can be described thus: In vitro cellular kinase assay for FGFR4 (BaF3-Tel-FGFR4 cells, MSD capture ELISA of tyrosine phosphorylation). Type of assay: cell-based. The conditions noted are these: BaF3-Tel-FGFR4 cells, 1 hour incubation; read-out: Cellular BaF3 FGFR4 IC50.

For 24 molecules, IC50 results are on record in patent US9266883B2, “Ring-fused bicyclic pyridyl derivatives as FGFR4 inhibitors” (Novartis AG, priority 2013, dated 2016).

Some results are limits rather than exact numbers.

FGFR3 (411-806), sequence (P22607 411-806): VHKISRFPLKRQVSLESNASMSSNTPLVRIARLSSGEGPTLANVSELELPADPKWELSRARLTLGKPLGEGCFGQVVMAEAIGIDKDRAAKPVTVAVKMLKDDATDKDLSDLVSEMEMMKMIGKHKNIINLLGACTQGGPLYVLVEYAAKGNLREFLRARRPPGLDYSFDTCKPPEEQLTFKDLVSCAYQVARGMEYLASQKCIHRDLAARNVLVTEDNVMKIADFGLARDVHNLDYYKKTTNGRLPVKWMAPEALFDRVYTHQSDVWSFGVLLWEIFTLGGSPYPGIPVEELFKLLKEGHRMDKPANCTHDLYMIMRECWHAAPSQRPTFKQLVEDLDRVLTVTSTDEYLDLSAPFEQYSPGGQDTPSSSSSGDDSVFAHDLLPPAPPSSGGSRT
FGFR2 (406-821), sequence (P21802 406-821): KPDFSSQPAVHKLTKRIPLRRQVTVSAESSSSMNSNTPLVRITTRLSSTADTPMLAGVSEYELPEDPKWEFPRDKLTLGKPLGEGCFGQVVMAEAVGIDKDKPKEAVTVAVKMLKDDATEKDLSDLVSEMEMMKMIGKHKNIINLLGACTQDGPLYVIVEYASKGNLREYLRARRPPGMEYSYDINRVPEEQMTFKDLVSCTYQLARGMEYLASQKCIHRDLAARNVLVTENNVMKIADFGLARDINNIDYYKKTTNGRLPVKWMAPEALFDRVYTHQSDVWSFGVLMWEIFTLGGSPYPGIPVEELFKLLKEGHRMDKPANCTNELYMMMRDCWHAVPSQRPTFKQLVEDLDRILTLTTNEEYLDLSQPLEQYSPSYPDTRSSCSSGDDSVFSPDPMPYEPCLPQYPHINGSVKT
FGFR1 (407-822), sequence (P11362 407-822): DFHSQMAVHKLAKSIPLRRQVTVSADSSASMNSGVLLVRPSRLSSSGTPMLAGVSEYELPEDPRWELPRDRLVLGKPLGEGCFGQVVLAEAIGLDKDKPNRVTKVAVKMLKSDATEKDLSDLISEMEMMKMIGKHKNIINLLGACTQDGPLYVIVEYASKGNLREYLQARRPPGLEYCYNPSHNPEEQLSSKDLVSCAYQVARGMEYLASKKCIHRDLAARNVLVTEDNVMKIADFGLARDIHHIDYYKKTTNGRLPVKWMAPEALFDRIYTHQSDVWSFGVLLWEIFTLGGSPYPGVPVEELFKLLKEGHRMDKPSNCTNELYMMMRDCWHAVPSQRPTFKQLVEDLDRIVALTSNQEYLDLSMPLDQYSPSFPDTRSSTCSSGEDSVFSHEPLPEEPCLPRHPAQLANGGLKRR
FGFR4 (GST-FGFR4(388-802)), sequence (P22455 388-802): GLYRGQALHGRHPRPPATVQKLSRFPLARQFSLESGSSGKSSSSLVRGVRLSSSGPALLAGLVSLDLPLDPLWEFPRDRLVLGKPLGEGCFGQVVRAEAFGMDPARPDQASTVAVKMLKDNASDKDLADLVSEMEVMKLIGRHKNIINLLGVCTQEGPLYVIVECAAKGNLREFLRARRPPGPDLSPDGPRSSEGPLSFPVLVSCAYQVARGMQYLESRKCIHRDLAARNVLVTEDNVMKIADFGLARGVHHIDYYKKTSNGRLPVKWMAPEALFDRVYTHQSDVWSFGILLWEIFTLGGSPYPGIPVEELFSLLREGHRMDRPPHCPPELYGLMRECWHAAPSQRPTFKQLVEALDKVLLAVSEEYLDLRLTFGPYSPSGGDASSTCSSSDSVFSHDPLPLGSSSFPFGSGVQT
Tel-FGFR4, sequence (P22455 other isoform, or with tags, fused parts or gaps): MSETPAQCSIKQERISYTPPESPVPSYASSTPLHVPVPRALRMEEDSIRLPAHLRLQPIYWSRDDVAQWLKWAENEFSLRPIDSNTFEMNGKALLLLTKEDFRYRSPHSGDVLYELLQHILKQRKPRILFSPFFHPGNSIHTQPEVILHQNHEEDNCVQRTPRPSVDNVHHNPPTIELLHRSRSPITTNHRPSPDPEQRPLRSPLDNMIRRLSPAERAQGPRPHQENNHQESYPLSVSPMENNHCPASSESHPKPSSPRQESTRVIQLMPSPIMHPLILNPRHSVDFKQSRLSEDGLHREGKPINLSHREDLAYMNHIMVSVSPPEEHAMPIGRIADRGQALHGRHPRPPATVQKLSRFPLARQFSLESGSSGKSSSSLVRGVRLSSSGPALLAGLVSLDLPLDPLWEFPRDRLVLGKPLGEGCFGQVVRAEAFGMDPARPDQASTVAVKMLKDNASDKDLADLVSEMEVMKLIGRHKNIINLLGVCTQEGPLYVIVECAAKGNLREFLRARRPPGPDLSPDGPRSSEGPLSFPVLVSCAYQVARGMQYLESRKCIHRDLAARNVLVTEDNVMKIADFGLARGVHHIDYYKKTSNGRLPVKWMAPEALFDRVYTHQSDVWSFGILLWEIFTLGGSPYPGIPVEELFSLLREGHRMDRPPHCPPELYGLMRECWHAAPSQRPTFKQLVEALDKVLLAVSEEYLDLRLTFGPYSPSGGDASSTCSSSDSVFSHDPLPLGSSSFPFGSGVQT

For the molecule `N#Cc1cnc(NC(=O)N2CCCc3ccc(C=O)nc32)nc1` [Example 8, N-(5-cyanopyrimidin-2-yl)-7-formyl-3,4-dihydro-1,8-naphthyridine-1(2H)-carboxamide], the IC50 against FGFR2 (406-821), against FGFR1 (407-822) and against FGFR3 (411-806) was > 10 µM throughout.
`COCCNc1cc(NC(=O)N2CCCc3cc(CN4CCOCC4=O)c(C=O)nc32)ncc1C#N` [Example 98, N-(5-cyano-4-((2-methoxyethyl)amino)pyridin-2-yl)-7-formyl-6-((3-oxomorpholino)methyl)-3,4-dihydro-1,8-naphthyridine-1(2H)-carboxamide]: the IC50 at FGFR2 (406-821), at FGFR1 (407-822) and at FGFR3 (411-806) was > 10 µM throughout.
`N#Cc1cnc(NC(=O)N2CCCc3cc(CO)c(C=O)nc32)cc1O[C@H]1CCOC1` [Example 50, (S)-N-(5-cyano-4-((tetrahydrofuran-3-yl)oxy)pyridin-2-yl)-7-formyl-6-(hydroxymethyl)-3,4-dihydro-1,8-naphthyridine-1(2H)-carboxamide]: the IC50 at FGFR2 (406-821), at FGFR1 (407-822) and against FGFR3 (411-806) was > 10 µM in each case.
With `COCCOc1cc(NC(=O)N2CCCc3cc(CO)c(C=O)nc32)ncc1C#N` [Example 39, N-(5-cyano-4-(2-methoxyethoxyl)pyridin-2-yl)-7-formyl-6-(hydroxymethyl)-3,4-dihydro-1,8-naphthyridine-1(2H)-carboxamide], the IC50 against FGFR2 (406-821), at FGFR1 (407-822) and against FGFR3 (411-806) was > 10 µM each time.
Consider `COCCOc1cc(NC(=O)N2CCCc3ccc(C=O)nc32)ncc1C#N` [Example 23, N-(5-cyano-4-(2-methoxyethoxyl)pyridin-2-yl)-7-formyl-3,4-dihydro-1,8-naphthyridine-1(2H)-carboxamide], for which the IC50 on FGFR2 (406-821), against FGFR1 (407-822) and against FGFR3 (411-806) was > 10 µM in each case.
For `CN1CC[C@@H](Oc2cc(NC(=O)N3CCCc4cc(CO)c(C=O)nc43)ncc2C#N)C1` [Example 54, (R)-N-(5-cyano-4-((1-methylpyrrolidin-3-yl)oxy)pyridin-2-yl)-7-formyl-6-(hydroxymethyl)-3,4-dihydro-1,8-naphthyridine-1(2H)-carboxamide], the IC50 on FGFR2 (406-821), on FGFR1 (407-822) and on FGFR3 (411-806) was > 10 µM each time.
Regarding `CN(C)CCOc1cc(NC(=O)N2CCCc3ccc(C=O)nc32)ncc1C#N` [Example 38, N-(5-cyano-4-(2-(dimethylamino)ethoxy)pyridin-2-yl)-7-formyl-3,4-dihydro-1,8-naphthyridine-1(2H)-carboxamide], the IC50 against FGFR2 (406-821), on FGFR1 (407-822) and at FGFR3 (411-806) was > 10 µM in each case.
On to `CN(C)CC(C)(O)CNc1cc(NC(=O)N2CCCc3cc(CO)c(C=O)nc32)ncc1C#N` (racemic) [Example 87, N-(5-cyano-4-((3-(dimethylamino)-2-hydroxy-2-methylpropyl)amino)pyridin-2-yl)-7-formyl-6-(hydroxymethyl)-3,4-dihydro-1,8-naphthyridine-1(2H)-carboxamide], for which the IC50 at FGFR2 (406-821), on FGFR1 (407-822) and against FGFR3 (411-806) was > 10 µM each time.
Turning to `N#Cc1ccc(NC(=O)N2CCCc3ccc(C=O)nc32)nc1` [Example 3, N-(5-cyanopyridin-2-yl)-7-formyl-3,4-dihydro-1,8-naphthyridine-1(2H)-carboxamide], the IC50 on FGFR2 (406-821), on FGFR1 (407-822) and at FGFR3 (411-806) was > 10 µM throughout.
On to `N#Cc1cnc(NC(=O)N2CCCc3ccc(C=O)nc32)cn1` [Example 12, N-(5-cyanopyrazin-2-yl)-7-formyl-3,4-dihydro-1,8-naphthyridine-1(2H)-carboxamide], for which the IC50 at FGFR2 (406-821), on FGFR1 (407-822) and against FGFR3 (411-806) was > 10 µM each time.
Turning to `COCCNc1cc(NC(=O)N2CCCc3cc(C4CCOCC4)c(C=O)nc32)ncc1C#N` [Example 249, N-(5-cyano-4-((2-methoxyethyl)amino)pyridin-2-yl)-7-formyl-6-(tetrahydro-2H-pyran-4-yl)-3,4-dihydro-1,8-naphthyridine-1(2H)-carboxamide], the IC50 is > 10 µM against FGFR2 (406-821), > 10 µM against FGFR1 (407-822) and 222 nM in assay [1].
In the case of `COCCNc1cc(NC(=O)N2CCCc3cc(CO)c(C=O)nc32)ncc1C#N` [Example 80, N-(5-cyano-4-((2-methoxyethyl)amino)pyridin-2-yl)-7-formyl-6-(hydroxymethyl)-3,4-dihydro-1,8-naphthyridine-1(2H)-carboxamide], the IC50 against FGFR2 (406-821), at FGFR1 (407-822) and against FGFR3 (411-806) was > 10 µM in each case.
In the case of `COc1cc(NC(=O)N2CCCc3ccc(C=O)nc32)ncc1C#N` [Example 13, N-(5-cyano-4-methoxypyridin-2-yl)-7-formyl-3,4-dihydro-1,8-naphthyridine-1(2H)-carboxamide], the IC50 against FGFR2 (406-821), against FGFR1 (407-822) and at FGFR3 (411-806) was > 10 µM each time.
In the case of `CCOc1cc(NC(=O)N2CCCc3ccc(C=O)nc32)ncc1C#N` [Example 19, N-(5-cyano-4-ethoxypyridin-2-yl)-7-formyl-3,4-dihydro-1,8-naphthyridine-1(2H)-carboxamide], the IC50 on FGFR2 (406-821), against FGFR1 (407-822) and at FGFR3 (411-806) was > 10 µM each time.
On to `N#Cc1cnc(NC(=O)N2CCCc3cc(CO)c(C=O)nc32)cc1NC1CCOC1` (racemic) [Example 56, N-(5-cyano-4-((tetrahydrofuran-3-yl)amino)pyridin-2-yl)-7-formyl-6-(hydroxymethyl)-3,4-dihydro-1,8-naphthyridine-1(2H)-carboxamide], for which the IC50 against FGFR2 (406-821), at FGFR1 (407-822) and against FGFR3 (411-806) was > 10 µM each time.
As to `N#Cc1cnc(NC(=O)N2CCCc3cc(CO)c(C=O)nc32)cc1OCC1CCCCO1` (racemic) [Example 44, N-(5-cyano-4-((tetrahydro-2H-pyran-2-yl)methoxy)pyridin-2-yl)-7-formyl-6-(hydroxymethyl)-3,4-dihydro-1,8-naphthyridine-1(2H)-carboxamide], the values for the IC50 (in assay [2]; at Tel-FGFR4; in assay [1]) were 0.0081 µM, 0.0313 µM and 1230 nM, respectively.
The like results for `CC(C)Oc1cc(NC(=O)N2CCCc3cc(CN(C)C(=O)CN(C)C)c(C=O)nc32)ncc1C#N` [Example 145, N-(5-cyano-4-isopropoxypyridin-2-yl)-6-((2-(dimethylamino)-N-methylacetamido)methyl)-7-formyl-3,4-dihydro-1,8-naphthyridine-1(2H)-carboxamide] were, in that order, 0.0004 µM, 0.015 µM and 154 nM.
For the molecule `N#Cc1ccc(NC(=O)N2CCCCc3ccc(C=O)nc32)nc1` [Example 201, N-(5-cyanopyridin-2-yl)-2-formyl-7,8-dihydro-5H-pyrido[2,3-b]azepine-9(6H)-carboxamide], the IC50 against FGFR2 (406-821), on FGFR1 (407-822) and against FGFR3 (411-806) was > 10 µM in each case.
Take `CC(=O)N(C)Cc1cc2c(nc1C=O)N(C(=O)Nc1cc(NCCOC(F)(F)F)c(C#N)cn1)CCC2` [Example 188, N-(5-cyano-4-((2-(trifluoromethoxy)ethyl)amino)pyridin-2-yl)-7-formyl-6-((N-methylacetamido)methyl)-3,4-dihydro-1,8-naphthyridine-1(2H)-carboxamide]: the IC50 came to 0.0004 µM in assay [2], 0.0052 µM on Tel-FGFR4 and 59 nM in assay [1].
The like results for `COCCNc1cc(NC(=O)N2CCCc3cc(CN(CCN(C)C)S(C)(=O)=O)c(C=O)nc32)ncc1C#N` [Example 144, N-(5-cyano-4-((2-methoxyethyl)amino)pyridin-2-yl)-6-((N-(2-(dimethylamino)ethyl)methylsulfonamido)methyl)-7-formyl-3,4-dihydro-1,8-naphthyridine-1(2H)-carboxamide] were, in that order, 0.0023 µM, 0.0185 µM and 504 nM.
With `CC(C)Oc1cc(NC(=O)N2CCc3ccc(C=O)nc32)ncc1C#N` [Example 234, N-(5-cyano-4-isopropoxypyridin-2-yl)-6-formyl-2,3-dihydro-1H-pyrrolo[2,3-b]pyridine-1-carboxamide], the IC50 against FGFR2 (406-821), on FGFR1 (407-822) and on FGFR3 (411-806) was > 10 µM each time.
As for `N#Cc1cnc(NC(=O)N2CCCc3cc(CO)c(C=O)nc32)cc1O[C@@H]1CCOC1` [Example 49, (R)-N-(5-cyano-4-((tetrahydrofuran-3-yl)oxy)pyridin-2-yl)-7-formyl-6-(hydroxymethyl)-3,4-dihydro-1,8-naphthyridine-1(2H)-carboxamide], the IC50 against FGFR2 (406-821), at FGFR1 (407-822) and against FGFR3 (411-806) was > 10 µM each time.
Consider `O=Cc1ccc2c(n1)N(C(=O)Nc1ccc(C(F)(F)F)cn1)CCC2` [Example 1, 7-formyl-N-(5-(trifluoromethyl)pyridin-2-yl)-3,4-dihydro-1,8-naphthyridine-1(2H)-carboxamide], for which the IC50 against FGFR2 (406-821), against FGFR1 (407-822) and on FGFR3 (411-806) was > 10 µM throughout.
`COC(C)CNc1cc(NC(=O)N2CCCc3cc(CO)c(C=O)nc32)ncc1C#N` (racemic) [Example 57, N-(5-cyano-4-((2-methoxypropyl)amino)pyridin-2-yl)-7-formyl-6-(hydroxymethyl)-3,4-dihydro-1,8-naphthyridine-1(2H)-carboxamide]: the IC50 in assay [2] is 0.0039 µM; on Tel-FGFR4, 0.0113 µM; in assay [1], 436 nM.
